Consider two compounds from US9884812B2, “Use of DDX3X inhibitors for the treatment of pneumovirus infections” (priority 2014, dated 2018).

Data set [1] is described as follows: Solubility in cell medium. It is filed as physicochemical. The following applies: solution of ligand in DMSO (20 mM) diluted in cell media to 100 μM; scale from 'very poor' (almost insoluble) to 'very good' (freely soluble over extended periods at 4° C.).
The test system of data set [2] is hRSV (strain A2). Briefly: Plaque inhibition assay, hRSV. It is filed as cell-based, human respiratory syncytial virus. The note with it: hRSV, BSC1 cells, 4 day assay. The procedure:
Example: Plaque inhibition assay
An identical assay procedure was carried out for hRSV (strain A2) bovine RS (strain Snook) and PVM (strain 15). Virus stocks were diluted 10 fold in GMEM (Invitrogen) so that the wells containing cells received sufficient virus to generate approximately 2000, 200 and 20 plaques per well.
The overlay medium also contained the compound to be tested at appropriate concentrations. Typically the 6 concentrations of the test compounds used were: 100 μM, 31.6 μM, 10 μM, 3.16 μM, 1 μM and 0.316 μM.
Stocks of the test compounds were prepared in DMSO (Sigma) (carrier). Each stock compound was diluted 1 in 200 in overlay medium to give dilutions stated above.
(§1) Cells of a standard cell line known to support pneumovirus replication (typically HEp2 or BSC1 cells) were grown in standard 12 well plates at 37° C. in an atmosphere of 5% (v/v) CO2 until confluent. Medium was aspirated from the cells and replaced with 200 μl aliquots of virus. Aliquots were prepared by diluting virus stocks 10-fold in GMEM (Invitrogen) as described above with no FCS. A mock (no virus) was also set up to test cell viability. The virus was incubated with the cells for 1 hour at 33° C. with gentle rocking every 5-10 minutes. The inocula were removed and 2 ml of overlay medium was added. Overlay medium was either test (plus compound) or control (medium alone or medium containing DMSO). The plates were incubated at 33° C. for 4-8 days to allow plaques to develop as indicated. A volume of 1 ml of additional overlay medium (containing the test compound as appropriate) was added every 3 days. All virus dilutions were carried out with each concentration of test compound, or treated as controls, and each was carried out in triplicate.
Following incubation, cells were fixed by addition of an equal volume of 4% (v/v) glutaraldehyde (Sigma) in PBS with further incubation for a minimum of 2 hours. The fixing solution was washed off under a slow flowing stream of water and 1 ml of crystal violet (0.075% w/v: Sigma) was added and left for 20 minutes at room temperature. The crystal violet was removed and the fixed cell monolayers washed. Plates were air dried. Plaques counts were recorded from wells with >20 and <200 in number. These numbers provide the most robust statistical reliability for viable plaque counts.
This experimental approach screens the ability of compounds to block the formation of plaques.

Data set [3] relates to BSC1 cells. Description: Toxicity observed in plaque assay, BSC1 cells. It is filed as cell-based. The note with it: at 100 μM. The procedure: as §1
For data set [4], the system named is HEp2 or BSC1 cells. Briefly: Toxicity to cells in the TCID50 screen (mock control). It is filed as cell-based. The following applies: cellular RSV TCID50 assay tables. The procedure:
This method provides a rapid approach to initially screen compounds and was developed as an increased number of compounds were synthesised. […] Virus was then added over 5 different half log dilutions starting at a multiplicity of infection of 0.02 plus mock control. Three dilutions of compound plus a DMSO control were screened per plate. […] Identical plate repeats for each compound dilution were fixed in subsequent days as indicated.

In the case of `Cc1ccccc1NC(=O)Nc1cccc(C(F)(F)F)c1` [Compound 40, 1-(o-tolyl)-3-(3-(trifluoromethyl)phenyl)urea], in data set [1], the “Solubility in cell medium” value is given as “Good”. The “Inhibition of plaque formation” value in data set [2] is listed as “moderate inhibition”. Moreover, in data set [3], the “Toxicity in plaque assay” value is listed as “low toxicity”. In data set [4], the Toxicity result is “Low”.

By melting point is commonly meant the temperature, or range, at which the solid turns liquid. In turn, `CSc1cccc(NC(=O)NCCCOCCOCCOCCCNC(=O)Nc2cccc(SC)c2)c1` [Compound 36, 1-[3-(methylsulfanyl)phenyl]-3-[3-(2-{2-[3-({[3-(methylsulfanyl)-phenyl]carbamoyl}amino)propoxy]ethoxy}ethoxy)propyl]urea] returned a melting point of 106 to 108 °C. In addition, the “Solubility in cell medium” value in data set [1] is reported as “good”.
